ChEMBL document CHEMBL5523769, “Discovery of Novel Nonpeptidic and Noncovalent Small Molecule 3CLpro Inhibitors as anti-SARS-CoV-2 Drug Candidate” (J Med Chem, 2024)

Key:
[1] = target: T1, Replicase polyprotein 1ab (Severe acute respiratory syndrome coronavirus 2, UniProt P0DTD1)
[2] = Cytotoxicity against African green monkey Vero E6 cells incubated for 24 hrs by CCK8 assay; type: toxicity, cell-based, Vero C1008; settings: chlorocebus sabaeus
[3] = target: Replicase polyprotein 1ab (Severe acute respiratory syndrome coronavirus 2) (UniProt P0DTD1); settings: dose 31.25-1000 nM, time 100.0 sec
[4] = target: Replicase polyprotein 1ab (Severe acute respiratory syndrome coronavirus 2) (UniProt P0DTD1); settings: dose 31.25-1000 nM, time 100.0 sec; remark: listed apart in the source
[5] = Tmax in ICR mouse at 20 mg/kg, po; type: ADME, organism-based; settings: in vivo
[6] = Half-life in ICR mouse at 20 mg/kg, po; type: ADME, organism-based; settings: in vivo
[7] = Cmax in ICR mouse at 20 mg/kg, po; type: ADME, organism-based; settings: in vivo
[8] = AUC (0 to infinity) in ICR mouse at 20 mg/kg, po; type: ADME, organism-based; settings: in vivo
[9] = AUClast in ICR mouse at 20 mg/kg, po; type: ADME, organism-based; settings: in vivo
[10] = Observed MRT (0 to infinity) in ICR mouse at 20 mg/kg, po; type: ADME, organism-based; settings: in vivo
[11] = target: T1, Replicase polyprotein 1ab; remark: listed apart in the source

Structure (SMILES) | IC50 [1] [nM] | also measured
O=C(N[C@H]1CCC[C@H]1Nc1c(C(=O)N2CCOCC2)cc(Br)cc1[N+](=O)[O-])c1cc(=O)[nH]c2ccccc12 | 20.9 | –
O=C(c1cc(=O)[nH]c2ccccc12)N1CCN(c2ccc(Cl)c(Cl)c2)CC1Cc1ccccc1 (configuration not stated) | > 20000 | –
O=C(NCCC(F)(F)F)C1CN(c2ccc(Cl)c(Cl)c2)CCN1C(=O)c1cc(=O)[nH]c2ccccc12 (configuration not stated) | 200 | CC50 at 24 h [2]: 50300 nM
O=C(N[C@H]1CCCC[C@H]1Nc1c(C(=O)N2CCOCC2)cc(Br)cc1[N+](=O)[O-])c1cc(=O)[nH]c2ccccc12 | 32.7 | CC50 at 24 h [2]: > 200000 nM
O=C(NCC1CCO1)C1CN(c2ccc(Cl)c(Cl)c2)CCN1C(=O)c1cc(=O)[nH]c2ccccc12 (configuration not stated) | 310 | –
CN(CC1COCCO1)C(=O)C1CN(c2ccc(Cl)c(Cl)c2)CCN1C(=O)c1cc(=O)[nH]c2ccccc12 (configuration not stated) | 2610 | –
O=C(NCCCC(F)(F)F)C1CN(c2ccc(Cl)c(Cl)c2)CCN1C(=O)c1cc(=O)[nH]c2ccccc12 (configuration not stated) | 200 | CC50 at 24 h [2]: 69400 nM
O=C(N[C@H]1CCC[C@H]1Nc1c(C(=O)N2CCOCC2)cc(Br)cc1[N+](=O)[O-])c1cc(=O)[nH]c2c(F)cccc12 | 36.5 | –
O=C(C1CN(c2ccc(Cl)c(Cl)c2)CCN1C(=O)c1cc(=O)[nH]c2ccccc12)N1CCOCC1 (configuration not stated) | 9470 | –
O=C(N[C@H]1CCCC[C@H]1Nc1c(C(=O)N2CCOCC2)cc(Br)cc1[N+](=O)[O-])c1cc(=O)[nH]c2c(F)cccc12 | 26.9 | CC50 at 24 h [2]: > 200000 nM; K [3]: 5.4 10^5/M/s; K [4]: 0.01 s⁻¹; Tmax [5]: 15 min; half-life [6]: 48 min; Cmax [7]: 33.9 ng/mL; AUC(0-inf) [8]: 21.6 ng·h/mL; AUC(0-t) [9]: 21.2 ng·h/mL; MRT inf [10]: 39 min; Kd [11]: 19 nM
O=C(c1cc(=O)[nH]c2ccccc12)N1CCC(Nc2ccc(Cl)c(Cl)c2)C1 (configuration not stated) | 8330 | –
O=C(C1CN(c2ccc(Cl)c(Cl)c2)CCN1C(=O)c1cc(=O)[nH]c2ccccc12)N1CC2(COC2)C1 (configuration not stated) | 2110 | –
O=C(N[C@H]1CCCC[C@H]1Nc1c(C(=O)N2CCOCC2)cc(C2CC2)cc1[N+](=O)[O-])c1cc(=O)[nH]c2c(F)cccc12 | 11.5 | –
O=C(NCCC1CCOCC1)C1CN(c2ccc(Cl)c(Cl)c2)CCN1C(=O)c1cc(=O)[nH]c2ccccc12 (configuration not stated) | 1140 | –
